Where “and” joins values, the source holds several entries; their conditions need not be identical. Identical values can stand only once. Like-named read-outs stand apart in the source and are kept apart here.
How the values were obtained:
SARS-CoV-2 [1] = assay: Reduction of virus-induced cytopathic effect (visual and neutral red) within secondary assay; type: cell-based, SARS-CoV-2 USA_WA1/2020; conditions: Vero 76, 1 hour pretreatment of compound and virus
Description: Confluent or near-confluent cell culture monolayers of Vero 76 cells are prepared in 96-well disposable microplates the day before testing. Cells are maintained in minimum essential medium (MEM) supplemented with 5% FBS. For antiviral assays the same medium is used but with FBS reduced to 2% and supplemented with 50-μg/ml gentamicin. Compounds are dissolved in DMSO, saline or the diluent requested by the submitter. […] The test compound is prepared at four serial log 10 concentrations, usually 0.1, 1.0, 10, and […] or μM (per sponsor preference). Lower concentrations are used when insufficient compound is supplied. Five microwells are used per dilution: three for infected cultures and two for uninfected toxicity cultures. Controls for the experiment consist of six microwells that are infected and not treated (virus controls) and six that are untreated and uninfected (cell controls) on every plate. A known active drug is tested in parallel as a positive control drug using the same method as is applied for test compounds. […]
Growth media is removed from the cells and the test compound is applied in 0.1 ml volume to wells at 2× concentration. […] The dye content in each well is quantified using a spectrophotometer at 540 nm wavelength. […]
Active compounds are further tested in a confirmatory assay. […] The incorporated dye content is quantified as described above to generate the EC50 and CC50 values.

SARS-CoV-2 [2] = type: cell-based, SARS-CoV-2 (2019-nCoV/USA-WA1/2020 strain)
SARS-CoV-2 [3] = type: cell-based, SARS-CoV-2 (2019-nCoV/USA-WA1/2020 strain); conditions: viral replication; for % reduction relative to virus control / Virus titer, Average: 11.11 μM; for Virus titer, Rep-1 to Rep-3: 100 μM
SARS-CoV-2 [4] = type: cell-based, SARS-CoV-2 (2019-nCoV/USA-WA1/2020 strain); conditions: for Plaque counts: replicates, viral replication, Vero E6, 24 h
dengue virus = conditions: by inhibiting synthesis of NSP1; cited from earlier work
SARS-CoV-2 [5] = type: cell-based, SARS-CoV-2 (2019-nCoV/USA-WA1/2020 strain); conditions: for Plaque counts: replicates, direct inactivation, Vero E6, 24 h
yellow fever virus = conditions: by inhibiting synthesis of NSP1; cited from earlier work
SARS-CoV-2 [6] = assay: Reduction of virus yield (Secondary VYR assay); type: cell-based, SARS-CoV-2 USA_WA1/2020; conditions: Vero 76, 1 hour pretreatment of compound and virus, read-out: TEST EC90
Description: Active compounds are further tested in a confirmatory assay. This assay is set up similar to the methodology described above only eight half-log 10 concentrations of inhibitor are tested for antiviral activity and cytotoxicity. After sufficient virus replication occurs (3 days for SARS-CoV-2), a sample of supernatant is taken from each infected well (three replicate wells are pooled) and tested immediately or held frozen at −80° C. for later virus titer determination. After maximum CPE is observed, the viable plates are stained with neutral red dye. The incorporated dye content is quantified as described above to generate the EC50 and CC50 values.
Virus yielded in the presence of test compound is titrated and compared to virus titers from the untreated virus controls. Titration of the viral samples (collected as described in the paragraph above) is performed by endpoint dilution (Reed, L. J., and H. Muench. “A Simple Method of Estimating Fifty Percent Endpoints.” Am J Hyg 27 (1938): 493-98.)
Serial 1/10 dilutions of virus are made and plated into 4 replicate wells containing fresh cell monolayers of Vero 76 cells. Plates are then incubated, and cells are scored for the presence or absence of virus after a distinct CPE is observed, and the CCID50 calculated using the Reed-Muench method. […]

Vero E6 cell line = Vero E6 cell line in the presence of SARS-CoV-2; NCATS/NIH data; cited from earlier work

C=CC1=C(C)c2cc3[n-]c(cc4[n-]c(cc5nc(cc1n2)C(C)=C5C=C)c(C)c4CCC(=O)O)c(CCC(=O)O)c3C.[Sn+2] [RBT-9, Stannous protoporphyrin]
CC50 (Vero 76 cells): 39000 nM
CC50 (Vero 76 cells; read-out: VIS CC50, visual, Vero 76): 27000 nM
EC50 (SARS-CoV-2 [1]; neutral red, read-out: NR EC50): 1500 nM
EC50 (SARS-CoV-2 [1]; visual, read-out: VIS EC50): 1500 nM
% reduction relative to virus control (SARS-CoV-2 [2]): 46.2%
Virus titer, Average (SARS-CoV-2 [2]): 0.98×10^4 PFU/ml
% reduction relative to virus control (SARS-CoV-2 [2]; 0.411 μM, direct inactivation): No reduction
Virus titer, Average (SARS-CoV-2 [2]; 0.411 μM, direct inactivation): 1.83 × 10^4 PFU/ml
Virus titer, Rep-1 to Rep-3 (SARS-CoV-2 [2]; 0.411 μM, direct inactivation): 2.25 × 10^4 PFU/ml and 1.75 × 10^4 PFU/ml and 1.5 × 10^4 PFU/ml
% reduction relative to virus control (SARS-CoV-2 [2]; 0.411 μM, direct inactivation, listed as SnPP): no reduction
% reduction relative to virus control (SARS-CoV-2 [2]; 3.7 μM, direct inactivation): 98.6%
Virus titer, Average (SARS-CoV-2 [2]; 3.7 μM, direct inactivation): 0.25 × 10^4 PFU/ml
% reduction relative to virus control (SARS-CoV-2 [2]; 3.7 μM, direct inactivation, listed as SnPP): About 98.6%
% reduction relative to virus control (SARS-CoV-2 [3]): 48%
Virus titer, Average (SARS-CoV-2 [3]): 2 × 10^4 pfu/ml
% reduction relative to virus control (SARS-CoV-2 [3]; listed as SnPP): about 48%
Virus titer, Average (SARS-CoV-2 [3]; listed as SnPP): 2×10^4
Virus titer, Rep-1 to Rep-3 (SARS-CoV-2 [3]): not detected
Virus titer, Rep-1 to Rep-3 (SARS-CoV-2 [3]; listed as SnPP): could not be detected
Plaque counts (SARS-CoV-2 [4]; 0.005 μM): 363 and 342 and 223 and 294
Plaque counts (SARS-CoV-2 [4]; 0.015 μM): 136 and 228 and 172 and 164
Plaque counts (SARS-CoV-2 [4]; 0.046 μM): 170 and 167 and 182 and 259
Plaque counts (SARS-CoV-2 [4]; 0.14 μM): 293 and 228 and 264 and 211
Plaque counts (SARS-CoV-2 [4]; 0.41 μM): 292 and 243 and 309 and 304
Plaque counts (SARS-CoV-2 [4]; 1.23 μM): 290 and 286 and 320 and 294
Plaque counts (SARS-CoV-2 [4]; 3.70 μM): 130 and 125 (2×) and 153
Plaque counts (SARS-CoV-2 [4]; 11.11 μM): 143 and 134 and 129 and 145
Plaque counts (SARS-CoV-2 [4]; 33.33 μM): 89 and 99 and 78 and 79
Plaque counts (SARS-CoV-2 [4]; 100 μM): 15 (2×) and 12 and 7
EC50 (SARS-CoV-2 [4]; read-out: EC50, SARS-CoV-2 replication): 45700 nM
inhibition of viral infection (dengue virus): inhibit viral infection
Plaque counts (SARS-CoV-2 [5]; 0.005 μM): 203 and 304 and 260 and 236
Plaque counts (SARS-CoV-2 [5]; 0.015 μM): 189 and 212
Plaque counts (SARS-CoV-2 [5]; 0.046 μM): 222 and 332 and 256 and 196
Plaque counts (SARS-CoV-2 [5]; 0.14 μM): 217 and 354 and 230 and 174
Plaque counts (SARS-CoV-2 [5]; 0.41 μM): 259 and 194 and 205 and 235
Plaque counts (SARS-CoV-2 [5]; 1.23 μM): 117 and 64 and 132 and 189
Plaque counts (SARS-CoV-2 [5]; 3.70 μM): 0 (3×) and 48
Plaque counts (SARS-CoV-2 [5]; 11.11 μM): 0
Plaque counts (SARS-CoV-2 [5]; 33.33 μM): 0
Plaque counts (SARS-CoV-2 [5]; 100 μM): 0
EC50 (SARS-CoV-2 [5]; read-out: mean EC50, direct SARS-CoV-2 inactivation): 1320 nM
inhibition of viral infection (yellow fever virus): inhibit viral infection
cytopathic effect (CPE) of SnPP (Vero E6 cells): did not observe a cytopathic effect (CPE)
EC90 (SARS-CoV-2 [6]): 970 nM
CC50 (Vero E6 cell line): > 30000 nM

CCC(CC)COC(=O)[C@H](C)N[P@](=O)(OC[C@H]1O[C@@](C#N)(c2ccc3c(N)ncnn23)[C@H](O)[C@@H]1O)Oc1ccccc1 [Remdesivir, reference compound]
Plaque counts (SARS-CoV-2 [4]; 0.003 μM): 353 and 324
Plaque counts (SARS-CoV-2 [4]; 0.008 μM): 195
Plaque counts (SARS-CoV-2 [4]; 0.023 μM): 245
Plaque counts (SARS-CoV-2 [4]; 0.07 μM): 233 and 192
Plaque counts (SARS-CoV-2 [4]; 0.21 μM): 212 and 200
Plaque counts (SARS-CoV-2 [4]; 0.62 μM): 274 and 270
Plaque counts (SARS-CoV-2 [4]; 1.85 μM): 64 and 76
Plaque counts (SARS-CoV-2 [4]; 5.56 μM): 0
Plaque counts (SARS-CoV-2 [4]; 16.67 μM): 0
Plaque counts (SARS-CoV-2 [4]; 50 μM): 0

Reference: patent publication US20210338708A1, “METHOD FOR TREATMENT OF CORONAVIRUS INFECTION” (Renibus Therapeutics, Inc., priority 2020, published 2021)
